Key:
Hepatotoxicity [1] = test system: Hepatotoxicity;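 as to HepSE bilirubinemia: bilirubinemia hepatic side effect score drawn from the DILIps training data, a prediction system for drug-induced liver injury; call rule not given here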;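 as to HepSE cholelithiasis: hepatic side effect score for cholelithiasis, drawn from the DILIps training data for predicting drug-induced liver injury; call rule not given here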;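 as to HepSE cirrhosis: cirrhosis hepatic side effect score taken from the DILIps (drug-induced liver injury prediction) training set; call rule not given here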;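 as to HepSE elevated liver function tests: hepatic side effect score for raised liver function tests, as recorded in the DILIps training set used for predicting drug-induced liver injury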; as to HepSE hepatic failure: call rule not given here;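 as to HepSE jaundice: Jaundice-related hepatic side-effect score drawn from the training data of the DILIps (drug-induced liver injury prediction system); call rule not given here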; as to HepSE liver disease: call rule not given here
Hepatotoxicity [2] = test system: Hepatotoxicity; remark: listed apart in the source;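 as to HepSE bilirubinemia: bilirubinemia hepatic side effect score drawn from the DILIps training data, a prediction system for drug-induced liver injury; call rule not given here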;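 as to HepSE cholelithiasis: hepatic side effect score for cholelithiasis, drawn from the DILIps training data for predicting drug-induced liver injury; call rule not given here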;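 as to HepSE cirrhosis: cirrhosis hepatic side effect score taken from the DILIps (drug-induced liver injury prediction) training set; call rule not given here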;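 as to HepSE elevated liver function tests: hepatic side effect score for raised liver function tests, as recorded in the DILIps training set used for predicting drug-induced liver injury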; as to HepSE hepatic failure: call rule not given here;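 as to HepSE jaundice: Jaundice-related hepatic side-effect score drawn from the training data of the DILIps (drug-induced liver injury prediction system); call rule not given here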; as to HepSE liver disease: call rule not given here
Hepatotoxicity [3] = test system: Hepatotoxicity; remark: listed apart in the source;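 as to HepSE bilirubinemia: bilirubinemia hepatic side effect score drawn from the DILIps training data, a prediction system for drug-induced liver injury; call rule not given here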;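 as to HepSE cholelithiasis: hepatic side effect score for cholelithiasis, drawn from the DILIps training data for predicting drug-induced liver injury; call rule not given here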;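 as to HepSE cirrhosis: cirrhosis hepatic side effect score taken from the DILIps (drug-induced liver injury prediction) training set; call rule not given here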;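 as to HepSE elevated liver function tests: hepatic side effect score for raised liver function tests, as recorded in the DILIps training set used for predicting drug-induced liver injury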; as to HepSE hepatic failure: call rule not given here;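 as to HepSE jaundice: Jaundice-related hepatic side-effect score drawn from the training data of the DILIps (drug-induced liver injury prediction system); call rule not given here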; as to HepSE liver disease: call rule not given here
Hepatotoxicity [4] = test system: Hepatotoxicity; remark: listed apart in the source;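 as to HepSE bilirubinemia: bilirubinemia hepatic side effect score drawn from the DILIps training data, a prediction system for drug-induced liver injury; call rule not given here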;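 as to HepSE cholelithiasis: hepatic side effect score for cholelithiasis, drawn from the DILIps training data for predicting drug-induced liver injury; call rule not given here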;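 as to HepSE elevated liver function tests: hepatic side effect score for raised liver function tests, as recorded in the DILIps training set used for predicting drug-induced liver injury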; as to HepSE hepatic failure: call rule not given here;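 as to HepSE jaundice: Jaundice-related hepatic side-effect score drawn from the training data of the DILIps (drug-induced liver injury prediction system); call rule not given here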; as to HepSE liver disease: call rule not given here
Hepatotoxicity [5] = test system: Hepatotoxicity; remark: listed apart in the source; as to HepSE hepatic failure: call rule not given here; as to HepSE liver disease: call rule not given here
Hepatotoxicity [6] = test system: Hepatotoxicity; remark: listed apart in the source; as to HepSE hepatic failure: call rule not given here; as to HepSE liver disease: call rule not given here
Hepatotoxicity [7] = test system: Hepatotoxicity; remark: listed apart in the source
Hepatotoxicity [8] = test system: Hepatotoxicity; remark: listed apart in the source
Hepatotoxicity [9] = test system: Hepatotoxicity; remark: listed apart in the source
Hepatotoxicity [10] = test system: Hepatotoxicity; remark: listed apart in the source
Hepatotoxicity [11] = test system: Hepatotoxicity; remark: listed apart in the source
Hepatotoxicity [12] = test system: Hepatotoxicity; remark: listed apart in the source
Hepatotoxicity [13] = test system: Hepatotoxicity; remark: listed apart in the source
Hepatotoxicity [14] = test system: Hepatotoxicity; remark: listed apart in the source

Row | SMILES | HepSE_liver disease (Hepatotoxicity [1]) | HepSE_bilirubinemia (Hepatotoxicity [2]) | HepSE_hepatic failure (Hepatotoxicity [3]) | HepSE_cholelithiasis (Hepatotoxicity [4]) | HepSE_jaundice (Hepatotoxicity [5]) | HepSE_elevated liver function tests (Hepatotoxicity [6]) | HepSE_cirrhosis (Hepatotoxicity [7]) | HepSE_liver function tests abnormal (Hepatotoxicity [8]) | HepSE_hepatic necrosis (Hepatotoxicity [9]) | HepSE_hepatomegaly (Hepatotoxicity [10]) | HepSE_Combined Scores (Hepatotoxicity [11]) | HepSE_hepatitis (Hepatotoxicity [12]) | HepSE_liver fatty (Hepatotoxicity [13]) | HepSE_cholecystitis (Hepatotoxicity [14]) | other results
1 | OCc1cc(C(O)CNCCCCCCOCCCCc2ccccc2)ccc1O (configuration not stated) [SALMETEROL] | 0 | 0 | 0 | 0 | 0 | 0 | 0 | 0 | 0 | 0 | 0 | 0 | 0 | 0 | –
2 | C[C@H](O)[C@H](O)[C@H]1CNc2nc(N)[nH]c(=O)c2N1 [SAPROPTERIN] | 0 | 0 | 0 | 0 | 0 | 0 | 0 | 0 | 0 | 0 | 0 | 0 | 0 | 0 | –
3 | C=CCC1(C(C)CCC)C(=O)NC(=O)NC1=O (configuration not stated) [SECOBARBITAL] | 0 | 0 | 0 | 0 | 0 | 0 | 0 | 0 | 0 | 0 | 0 | 0 | 0 | 0 | –
4 | C#CCN(C)[C@H](C)Cc1ccccc1 [SELEGILINE] | 0 | 1 | 0 | 1 | 0 | 0 | 0 | 1 | 0 | 0 | 5 | 1 | 0 | 1 | –
5 | Clc1ccc(C(Cn2ccnc2)OCc2csc3c(Cl)cccc23)c(Cl)c1 (configuration not stated) [SERTACONAZOLE] | 0 | 0 | 0 | 0 | 0 | 0 | 0 | 0 | 0 | 0 | 0 | 0 | 0 | 0 | –
6 | CN[C@H]1CC[C@@H](c2ccc(Cl)c(Cl)c2)c2ccccc21 [SERTRALINE] | – | – | – | – | – | – | – | – | – | – | – | – | – | – | HepSE_liver disease (Hepatotoxicity [1]; Liver): 0; HepSE_bilirubinemia (Hepatotoxicity [2]; Liver): 0; HepSE_hepatic failure (Hepatotoxicity [3]; Liver): 1; HepSE_cholelithiasis (Hepatotoxicity [4]; Liver): 0; HepSE_jaundice (Hepatotoxicity [5]; Liver): 1; HepSE_elevated liver function tests (Hepatotoxicity [6]; Liver): 0; HepSE_cirrhosis (Hepatotoxicity [7]; Liver): 0; HepSE_liver function tests abnormal (Hepatotoxicity [8]; Liver): 0; HepSE_hepatic necrosis (Hepatotoxicity [9]; Liver): 0; HepSE_hepatomegaly (Hepatotoxicity [10]; Liver): 1; HepSE_Combined Scores (Hepatotoxicity [11]; Liver): 4; HepSE_hepatitis (Hepatotoxicity [12]; Liver): 1; HepSE_liver fatty (Hepatotoxicity [13]; Liver): 0; HepSE_cholecystitis (Hepatotoxicity [14]; Liver): 0
7 | FCOC(C(F)(F)F)C(F)(F)F [SEVOFLURANE] | 0 | 1 | 1 | 0 | 1 | 0 | 0 | 0 | 1 | 0 | 5 | 1 | 0 | 0 | –
8 | CC(C)CC(N(C)C)C1(c2ccc(Cl)cc2)CCC1 (configuration not stated) [SIBUTRAMINE] | 0 | 0 | 0 | 1 | 0 | 0 | 0 | 1 | 0 | 0 | 3 | 0 | 0 | 1 | –
9 | CSCC[C@H](NC(=O)[C@H](Cc1ccc(OS(=O)(=O)O)cc1)NC(=O)[C@@H](N)CC(=O)O)C(=O)NCC(=O)N[C@@H](Cc1c[nH]c2ccccc12)C(=O)N[C@@H](CCSC)C(=O)N[C@@H](CC(=O)O)C(=O)N[C@@H](Cc1ccccc1)C(N)=O [SINCALIDE] | 0 | 0 | 0 | 0 | 0 | 0 | 0 | 0 | 0 | 0 | 0 | 0 | 0 | 0 | –
10 | CO[C@H]1C[C@@H]2CC[C@@H](C)[C@@](O)(O2)C(=O)C(=O)N2CCCC[C@H]2C(=O)O[C@H]([C@H](C)C[C@@H]2CC[C@@H](O)[C@H](OC)C2)CC(=O)[C@H](C)/C=C(\C)[C@@H](O)[C@@H](OC)C(=O)[C@H](C)C[C@H](C)/C=C/C=C/C=C/1C [SIROLIMUS] | 0 | 1 | 0 | 0 | 0 | 0 | 0 | 1 | 1 | 0 | 3 | 0 | 0 | 0 | –
11 | CC(=O)[O-].[Na+] [SODIUM ACETATE] | – | – | – | – | – | – | – | – | – | – | – | – | – | – | HepSE_liver disease (Hepatotoxicity [1]; Liver): 0; HepSE_bilirubinemia (Hepatotoxicity [2]; Liver): 0; HepSE_hepatic failure (Hepatotoxicity [3]; Liver): 0; HepSE_cholelithiasis (Hepatotoxicity [4]; Liver): 0; HepSE_jaundice (Hepatotoxicity [5]; Liver): 0; HepSE_elevated liver function tests (Hepatotoxicity [6]; Liver): 0; HepSE_cirrhosis (Hepatotoxicity [7]; Liver): 0; HepSE_liver function tests abnormal (Hepatotoxicity [8]; Liver): 0; HepSE_hepatic necrosis (Hepatotoxicity [9]; Liver): 0; HepSE_hepatomegaly (Hepatotoxicity [10]; Liver): 0; HepSE_Combined Scores (Hepatotoxicity [11]; Liver): 0; HepSE_hepatitis (Hepatotoxicity [12]; Liver): 0; HepSE_liver fatty (Hepatotoxicity [13]; Liver): 0; HepSE_cholecystitis (Hepatotoxicity [14]; Liver): 0
12 | O=C([O-])O.[Na+] [SODIUM BICARBONATE] | – | – | – | – | – | – | – | – | – | – | – | – | – | – | HepSE_liver disease (Hepatotoxicity [1]; Liver): 0; HepSE_bilirubinemia (Hepatotoxicity [2]; Liver): 0; HepSE_hepatic failure (Hepatotoxicity [3]; Liver): 0; HepSE_cholelithiasis (Hepatotoxicity [4]; Liver): 0; HepSE_jaundice (Hepatotoxicity [5]; Liver): 0; HepSE_elevated liver function tests (Hepatotoxicity [6]; Liver): 0; HepSE_cirrhosis (Hepatotoxicity [7]; Liver): 0; HepSE_liver function tests abnormal (Hepatotoxicity [8]; Liver): 0; HepSE_hepatic necrosis (Hepatotoxicity [9]; Liver): 0; HepSE_hepatomegaly (Hepatotoxicity [10]; Liver): 0; HepSE_Combined Scores (Hepatotoxicity [11]; Liver): 0; HepSE_hepatitis (Hepatotoxicity [12]; Liver): 0; HepSE_liver fatty (Hepatotoxicity [13]; Liver): 0; HepSE_cholecystitis (Hepatotoxicity [14]; Liver): 0
13 | [Cl-].[Na+] [SODIUM CHLORIDE] | 0 | 0 | 0 | 0 | 0 | 0 | 0 | 0 | 0 | 0 | 0 | 0 | 0 | 0 | –

Source: ChEMBL document CHEMBL1909294, “Translating clinical findings into knowledge in drug safety evaluation--drug induced liver injury prediction system (DILIps)” (PLoS Comput Biol, 2011)
